{"source": "patent US20080015260A1", "about": "“Pharmaceutical compositions having improved stability and methods for preparation and use” (Kiel Laboratories, Inc., priority 2006, published 2008)", "test": "Conversion of API to insoluble tannate complex in reaction mixtures (centrifugation, % converted insoluble)", "type": "physicochemical", "settings": "for conversion to the tannate complex at reduced Neusilin® levels: ½ (4.4 wt%) and ¼ (2.2 wt%) Neusilin®", "procedure": "The following example is a series of reaction mixtures for suspension formulations containing phenylephrine HCl, tannic acid and MAS or various concentrations of Neusilin®:\nAnalysis of the above suspensions was carried out by removing 10 gms of product and centrifuging. The amount of API found in the insoluble portion of the suspension was reported as the % converted insoluble and the liquid portion as the % converted soluble.\nAnalysis of the above suspension was carried out by removing 10 gms of product and centrifuging. The amount of API found in the insoluble portion of the suspension was reported as the % converted insoluble and the liquid portion as the % converted soluble.", "note": "Counter-ions that a name gives are not always drawn.", "data": [{"smiles": "CCN(CC)CCOCCOC(=O)C1(c2ccccc2)CCCC1", "note": "[carbetapentane, Carbetapentane Citrate]", "values": [{"measurement": "effect of Neusilin® on level of conversion to the tannate complex compared to MAS", "setting": "Neusilin® versus MAS, FIG. 2, FIG. 3", "value": "does not significantly affect the level of conversion"}, {"measurement": "conversion to the tannate complex at reduced Neusilin® levels", "value": "same level of conversion"}]}, {"smiles": "CNC[C@H](O)c1cccc(O)c1", "note": "[phenylephrine, Phenylephrine HCl]", "values": [{"measurement": "increase in conversion to the tannate complex with Neusilin® in the suspension", "setting": "Neusilin® 8.7 wt% versus MAS 8.7 wt%, FIG. 1", "value": "> 30", "unit": "%"}, {"measurement": "conversion to the tannate complex at reduced Neusilin® levels", "value": "same increase in conversion"}]}]}
